Test results reported in patent US20260130933A1, “PHARMACEUTICAL COMPOSITION FOR PREVENTION OR TREATMENT OF NEPHROPATHY AND/OR DIABETES MELLITUS, COMPRISING ENAVOGLIFLOZIN” (DAEWOONG PHARMACEUTICAL CO., LTD., priority 2022, published 2026).

Assay: Example 3: phase 3 trial, enavogliflozin 0.3 mg vs dapagliflozin 10 mg once a day for 24 weeks added to metformin and gemigliptin in patients with type 2 diabetes (same endpoints, rescue drug)
Assay type: in vivo, human
Protocol: 1) when Metformin (≥1,000 mg/Day) was Administered at a Constant Dose for at Least 8 Weeks Prior to Pre-Visit (Pre-Screening) • Metformin (≥1,000 mg/day) and gemigliptin (50 mg/day) were co-administered during the 8-week stabilization period. […] 4) when Metformin (≥1,000 mg/Day) and Gemigliptin (50 mg/Day) were Co-Administered at Constant Doses for at Least 8 Weeks Prior to Pre-Visit (Prescreening) • Without a separate stabilization period, Pre-visit (pre-screening) was Visit 1 (screening).
Subjects who met the inclusion/exclusion criteria continued to receive metformin and gemigliptin while receiving a placebo of the clinical trial drug in a single-blind (subject-blinded) state for a 2-week run-in period.
Here, the randomized subjects were stratified according to the administration therapy (co-administration with two or less agents (one or two agents) or three or more agents) of a conventional hypoglycemic agent (before washout of another hypoglycemic agent) within 24 weeks prior to obtaining written informed consent and by an HbA1c value (<8% or ≥8%) at Visit 1 (screening) measured in the central laboratory.
The randomized subjects were administered two tablets of the clinical trial drug corresponding to each administration group once a day, and then visited the institution at weeks 6, 12, 18, and 24 during the 24-week administration period to conduct efficacy and safety assessments. In addition, during the clinical trial period, they were instructed to exercise regularly and control their diet without changing their daily life patterns.
• 1) Change in HbA1c at week 24 after administration of clinical trial drug compared to Visit 2 (randomization)
• 1) Change in HbA1c at each time point of weeks 6, 12, and 18 after administration of clinical trial drug compared to Visit 2 (randomization) • 2) Change in FPG at each time point of weeks 6, 12, 18, and 24 after administration of clinical trial drug compared to Visit 2 (randomization) • 3) Proportion of subjects achieving HbA1c<7% at each time point of weeks 6, 12, 18, and 24 after administration of clinical trial drug • 4) Proportion of subjects achieving HbA1c<6.5% at each time point of weeks 6, 12, 18, and 24 after administration of clinical trial drug • 5) Proportion of subjects achieving therapeutic response (HbA1c change (HbA1c at Visit 2—HbA1c at each evaluation time point)>0.5% or HbA1c<7% at each evaluation time point compared to Visit 2 (randomization)) at each time point of weeks 6, 12, 18, and 24 after administration of clinical trial drug • 6) Proportion of subjects achieving therapeutic response (HbA1c change (HbA1c at Visit 2—HbA1c at each evaluation time point)>0.7% or HbA1c<7% at each evaluation time point compared to Visit 2 (randomization)) at each time point of weeks 6, 12, 18, and 24 after administration of clinical trial drug • 7) Proportion of subjects achieving therapeutic response (HbA1c change (HbA1c at Visit 2—HbA1c at each evaluation time point)>1% or HbA1c<7% at each evaluation time point compared to Visit 2 (randomization)) at each time point of weeks 6, 12, 18, and 24 after administration of clinical trial drug

[1] = week 6, per-protocol set, enavogliflozin 0.3 mg, dapagliflozin 10 mg
[2] = week 12, modified per-protocol set 1, enavogliflozin 0.3 mg vs dapagliflozin 10 mg
[3] = week 12, modified per-protocol set 1, enavogliflozin 0.3 mg, dapagliflozin 10 mg
[4] = week 12, modified per-protocol set 2

In the case of `OC[C@H]1O[C@@H](c2cc(Cc3ccc(C4CC4)cc3)c(Cl)c3c2CCO3)[C@H](O)[C@@H](O)[C@@H]1O` [Enavogliflozin, (2S,3R,4R,5S,6R)-2-(7-chloro-6 (4-cyclopropylbenzyl)-2,3-dihydrobenzofuran-4-yl)-6-(hydroxymethyl)tetrahydro-2H-pyran-3,4,5-triol], the “Fasting C-peptide, Mean” value [1] is reported as 0.67 ng/mL, the “Fasting C-peptide, Median” value [1] is reported as 0.63 ng/mL and the “HbA1c, Mean” value [1] is reported as 7.06%. The “HbA1c, Median” value [1] was 6.94%, the “Subjects achieving HbA1c target of <6.5%, (%)” value [1] was 11.21% and the “Subjects achieving HbA1c target of <7%, %” value [1] was 56.03%. The “body weight, Median” value [1] was 66.80 kg, the “Subjects achieving therapeutic glycemic response 1, %” value (week 6, per-protocol set, response 1 = HbA1c change >0.5% or HbA1c <7%, enavogliflozin 0.3 mg, dapagliflozin 10 mg) was 87.07% and the “Subjects achieving therapeutic glycemic response 2, %” value (week 6, per-protocol set, response 2 = HbA1c change >0.7% or HbA1c <7%, enavogliflozin 0.3 mg, dapagliflozin 10 mg) was 78.45%. The “Subjects achieving therapeutic glycemic response 3, %” value (week 6, per-protocol set, response 3 = HbA1c change >1% or HbA1c <7%, enavogliflozin 0.3 mg, dapagliflozin 10 mg) was 70.69%, the “FPG change from baseline, LS mean (SE)” value (week 12) was −27.17(1.54) mg/dL and the “HDL-C change from baseline, LS mean (SE)” value (week 12) was 3.18(0.62) mg/dL. The “HOMA-β change from baseline, LS mean (SE)” value (week 12) was 7.78(1.94), the “HbA1c change from baseline, LS mean (SE)” value (week 12) was −0.87(0.04) % p and the “LDL-C change from baseline, LS mean (SE)” value (week 12) was 2.95(1.79) mg/dL. The “UACR change from baseline, LS mean (SE)” value (week 12) was −15.12(4.60) g/kg, the “UGCR change from baseline, LS mean (SE)” value (week 12) was 58.21(2.07) mg/mg and the “adiponectin change from baseline, LS mean (SE)” value (week 12) was 0.89(0.34) μg/mL. The “body weight change from baseline, LS mean (SE)” value (week 12) was −2.72(0.20) kg, the “diastolic blood pressure change from baseline, LS mean (SE)” value (week 12) was −4.30(0.69) mmHg and the “fasting C-peptide change from baseline, LS mean (SE)” value (week 12) was −0.09(0.02) ng/ml. The “leptin change from baseline, LS mean (SE)” value (week 12) was −1.97(0.48) ng/ml, the “systolic blood pressure change from baseline, LS mean (SE)” value (week 12) was −6.43(0.88) mmHg and the “total cholesterol change from baseline, LS mean (SE)” value (week 12) was 6.80(2.04) mg/dL. The “triglyceride change from baseline, LS mean (SE)” value (week 12) was −3.23(5.25) mg/dL, the “FPG change from baseline, LS mean difference” value (week 12, vs dapagliflozin) was -2.75 mg/dL and the “HDL-C change from baseline, LS mean difference” value (week 12, vs dapagliflozin) was 0.34 mg/dL. The “HOMA-IR change from baseline, LS mean difference” value (week 12, vs dapagliflozin) was −0.06, the “HOMA-β change from baseline, LS mean difference” value (week 12, vs dapagliflozin) was 2.55 and the “HbA1c change from baseline, LS mean difference” value (week 12, vs dapagliflozin) was −0.04 % p. For the same compound, the “LDL-C change from baseline, LS mean difference” value (week 12, vs dapagliflozin) was 0.24 mg/dL, the “Odds ratio for achieving HbA1c<6.5%” value (week 12, vs dapagliflozin) was 1.44 and the “Odds ratio for achieving HbA1c<7%” value (week 12, vs dapagliflozin) was 1.20. For the same compound, the “Odds ratio, therapeutic response (HbA1c change >0.5% or HbA1c<7%)” value (week 12, vs dapagliflozin) was 1.09, the “Odds ratio, therapeutic response (HbA1c change >0.7% or HbA1c<7%)” value (week 12, vs dapagliflozin) was 1.30 and the “Odds ratio, therapeutic response (HbA1c change >1% or HbA1c<7%)” value (week 12, vs dapagliflozin) was 1.31. The “UACR change from baseline, LS mean difference” value (week 12, vs dapagliflozin) was -3.35 g/kg, the “UGCR change from baseline, LS mean difference” value (week 12, vs dapagliflozin) was 13.37 mg/mg and the “adiponectin change from baseline, LS mean difference” value (week 12, vs dapagliflozin) was 0.19 µg/mL. For the same compound, the “body weight change from baseline, LS mean difference” value (week 12, vs dapagliflozin) was -0.01 kg, the “diastolic blood pressure change from baseline, LS mean difference” value (week 12, vs dapagliflozin) was −2.04 mmHg and the “fasting C-peptide change from baseline, LS mean difference” value (week 12, vs dapagliflozin) was -0.02 ng/mL. For the same compound, the “leptin change from baseline, LS mean difference” value (week 12, vs dapagliflozin) was -0.28 ng/mL, the “systolic blood pressure change from baseline, LS mean difference” value (week 12, vs dapagliflozin) was −1.37 mmHg and the “total cholesterol change from baseline, LS mean difference” value (week 12, vs dapagliflozin) was 1.40 mg/dL. The “triglyceride change from baseline, LS mean difference” value (week 12, vs dapagliflozin) was 8.79 mg/dL, the “Change from baseline in HDL-C, ANCOVA LS mean difference” value [2] was 0.34 mg/dL and the “Change from baseline in LDL-C, ANCOVA LS mean difference” value [2] was 0.24 mg/dL. The “Change from baseline in total cholesterol, ANCOVA LS mean difference” value [2] was 1.40 mg/dL, the “Change from baseline in triglycerides, ANCOVA LS mean difference” value [2] was 8.79 mg/dL and the “Change from baseline in HDL-C, ANCOVA LS mean” value [3] was 3.18 mg/dL. For the same compound, the “Change from baseline in HDL-C, Mean” value [3] was 3.17 mg/dL, the “Change from baseline in HDL-C, Median” value [3] was 3.00 mg/dL and the “Change from baseline in LDL-C, ANCOVA LS mean” value [3] was 2.95 mg/dL. The “Change from baseline in LDL-C, Mean” value [3] was 3.76 mg/dL, the “Change from baseline in LDL-C, Median” value [3] was 3.00 mg/dL and the “Change from baseline in total cholesterol, ANCOVA LS mean” value [3] was 6.80 mg/dL. The “Change from baseline in total cholesterol, Mean” value [3] was 7.79 mg/dL, the “Change from baseline in total cholesterol, Median” value [3] was 7.00 mg/dL and the “Change from baseline in triglycerides, ANCOVA LS mean” value [3] was -3.23 mg/dL. The “Change from baseline in triglycerides, Mean” value [3] was 0.59 mg/dL, the “Change from baseline in triglycerides, Median” value [3] was -3.00 mg/dL and the “Fasting HDL-C, Mean” value [3] was 49.21 mg/dL. The “Fasting HDL-C, Median” value [3] was 47.50 mg/dL, the “Fasting LDL-C, Mean” value [3] was 75.11 mg/dL and the “Fasting LDL-C, Median” value [3] was 72.00 mg/dL. The “Fasting total cholesterol, Mean” value [3] was 142.09 mg/dL, the “Fasting triglycerides, Mean” value [3] was 118.98 mg/dL and the “Fasting triglycerides, Median” value [3] was 98.50 mg/dL. For the same compound, the “fasting Total cholesterol, Median” value [3] was 136.00 mg/dL, the “Change from baseline in diastolic blood pressure, ANCOVA LS mean” value [4] was −4.30 mmHg and the “Change from baseline in diastolic blood pressure, LS mean difference (enavogliflozin − dapagliflozin)” value [4] was −2.04 mmHg.
